Laboratory results taken from patent publication US9862707B2, “TrkA kinase inhibitors, compositions and methods thereof” (Merck Sharp & Dohme Corp., priority 2014, dated 2018).

Target: human TrkA receptor (Homo sapiens (Human), UniProt P04629)
Test: TrkA functional activity, DiscoverX PathHunter assay
Assay type: cell-based
Settings: U2OS cells expressing human TrkA-PK, Shc1-EA and p75NTR; compound 1 h, then NGF at ~80% of maximal response for 3 h; luminescence

Sequence of human TrkA receptor (P04629 33-796): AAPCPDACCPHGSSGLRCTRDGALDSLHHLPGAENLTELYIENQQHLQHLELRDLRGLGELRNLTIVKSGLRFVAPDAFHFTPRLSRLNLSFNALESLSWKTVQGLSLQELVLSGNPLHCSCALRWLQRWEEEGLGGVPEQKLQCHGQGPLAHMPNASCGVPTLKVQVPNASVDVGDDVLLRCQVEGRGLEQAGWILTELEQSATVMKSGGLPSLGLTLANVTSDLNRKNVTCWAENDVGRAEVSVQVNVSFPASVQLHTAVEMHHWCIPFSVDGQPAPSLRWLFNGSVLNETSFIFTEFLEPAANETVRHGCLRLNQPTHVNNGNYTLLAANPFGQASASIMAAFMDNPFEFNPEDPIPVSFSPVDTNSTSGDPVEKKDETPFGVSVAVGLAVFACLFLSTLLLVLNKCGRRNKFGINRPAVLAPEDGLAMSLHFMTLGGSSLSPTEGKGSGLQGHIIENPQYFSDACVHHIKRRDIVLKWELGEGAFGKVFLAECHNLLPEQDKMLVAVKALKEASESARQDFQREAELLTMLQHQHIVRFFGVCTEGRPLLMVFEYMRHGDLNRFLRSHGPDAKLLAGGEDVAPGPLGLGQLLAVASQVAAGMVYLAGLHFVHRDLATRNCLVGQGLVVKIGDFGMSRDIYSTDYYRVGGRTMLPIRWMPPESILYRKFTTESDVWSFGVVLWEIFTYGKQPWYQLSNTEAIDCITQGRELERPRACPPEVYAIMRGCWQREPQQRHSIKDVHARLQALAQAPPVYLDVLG

IC50 [nM] | SMILES
6.1 | NC(=O)c1ccc2c(NC(=O)c3cc(-c4ccccn4)c(C(F)(F)F)cc3Cl)n(-c3ccccc3)nc2c1 [Compound 83, 3-({[2-chloro-5-pyridin-2-yl-4-(trifluoromethyl)phenyl]carbonyl}amino)-2-phenyl-2H-indazole-6-carboxamide]
6.9 | O=C(Nc1c2cc(C(O)C(F)F)ccc2nn1-c1ccccc1)c1cc(-c2ncccn2)c(C(F)(F)F)cc1F (single isomer, unassigned; isomer a) [Compound 58, (R or S)-N-[5-(2,2-difluoro-1-hydroxyethyl)-2-phenyl-2H-indazol-3-yl]-2-fluoro-5-pyrimidin-2-yl-4-(trifluoromethyl)benzamide, isomer A]
0.64 | Cn1ccc(-c2cc(C(=O)Nc3c4cccc(CC(N)=O)c4nn3-c3ccccc3)c(F)cc2C(F)(F)F)n1 [Compound 95, N-(7-(2-Amino-2-oxoethyl)-2-phenyl-2H-indazol-3-yl)-2-fluoro-5-(1-methyl-1H-pyrazol-3-yl)-4-(trifluoromethyl)benzamide]
1.8 | Cn1ccc(-c2cc(C(=O)Nc3c4ccc([C@H](N)C(F)(F)F)cc4nn3-c3ccccc3)ccc2C(F)(F)F)n1 [Compound 101, (S)—N-(6-(1-Amino-2,2,2-trifluoroethyl)-2-phenyl-2H-indazol-3-yl)-3-(1-methyl-1H-pyrazol-3-yl)-4-(trifluoromethyl)benzamide]
13 | O=C(Nc1c2ccc(C(O)C(F)F)cc2nn1-c1ccccc1)c1cc(-c2ncccn2)c(C(F)(F)F)cc1F (single isomer, unassigned; isomer b) [Compound 57, (R or S)-N-[6-(2,2-difluoro-1-hydroxyethyl)-2-phenyl-2H-indazol-3-yl]-2-fluoro-5-pyrimidin-2-yl-4-(trifluoromethyl)benzamide, isomer B]
15 | O=C(Nc1c2ncc(C(O)CO)cc2nn1-c1ccccc1)c1cc(-c2ncccn2)c(C(F)(F)F)cc1Cl (single isomer, unassigned; isomer a) [Compound 64, (R or S)-2-chloro-N-[6-(1,2-dihydroxyethyl)-2-phenyl-2H-pyrazolo[4,3-b]pyridin-3-yl]-5-pyrimidin-2-yl-4-(trifluoromethyl)benzamide, isomer A]
29 | O=C(Nc1c2ccc(C3CCCN3)cc2nn1-c1ccccc1)c1cc(-c2ncccn2)c(C(F)(F)F)cc1F (single isomer, unassigned) [Compound 102, (R and S)-2-Fluoro-N-(2-phenyl-6-(pyrrolidin-2-yl)-2H-indazol-3-yl)-5-(pyrimidin-2-yl)-4-(trifluoromethyl)benzamide, isomers A and B]
0.63 | Cn1ccc(-c2cc(C(=O)Nc3c4ncc(C(N)=O)cc4nn3-c3ccccc3)c(F)cc2C(F)(F)F)n1 [Compound 87, 3-({[2-fluoro-5-(1-methyl-1H-pyrazol-3-yl)-4-(trifluoromethyl)phenyl]carbonyl}amino)-2-phenyl-2H-pyrazolo[4,3-b]pyridine-6-carboxamide]
7.2 | NC(=O)c1cnc2c(NC(=O)c3cc(-c4ncccn4)c(C(F)(F)F)cc3F)n(-c3ccccc3)nc2c1 [Compound 75, 3-(2-Fluoro-5-(pyrimidin-2-yl)-4-(trifluoromethyl)benzamido)-2-phenyl-2H-pyrazolo[4,3-b]pyridine-6-carboxamide]
21 | CN(C)Cc1ccc2nn(-c3ccccc3)c(NC(=O)c3ccc(C(F)(F)F)c(-c4ccn(C)n4)c3)c2c1 [Compound 68, N-{5-[(dimethylamino)methyl]-2-phenyl-2H-indazol-3-yl}-3-(1-methyl-1H-pyrazol-3-yl)-4-(trifluoromethyl)benzamide]
11 | O=C(CO)NCc1ccc2c(NC(=O)c3cc(-c4ncccn4)c(C(F)(F)F)cc3F)n(-c3ccccc3)nc2c1 [Compound 98, 2-Fluoro-N-(6-((2-hydroxyacetamido)methyl)-2-phenyl-2H-indazol-3-yl)-5-(pyrimidin-2-yl)-4-(trifluoromethyl)benzamide]
29 | O=C(Nc1c2ccc(C3CCCN3)cc2nn1-c1ccccc1)c1cc(-c2ncccn2)c(C(F)(F)F)cc1F (single isomer, unassigned) [Compound 103, (R and S)-2-Fluoro-N-(2-phenyl-6-(pyrrolidin-2-yl)-2H-indazol-3-yl)-5-(pyrimidin-2-yl)-4-(trifluoromethyl)benzamide, isomers A and B]

Further lines, the compound ahead of its results:

SMILES | IC50 [nM]
CC(C)(O)c1ccc2c(NC(=O)c3cc(-c4ncccn4)c(C(F)(F)F)cc3Cl)n(-c3ccccc3)nc2c1 [Compound 46, 2-chloro-N-[6-(1-hydroxy-1-methylethyl)-2-phenyl-2H-indazol-3-yl]-5-pyrimidin-2-yl-4-(trifluoromethyl)benzamide] | 1.7
O=C(Nc1c2ccc(C(O)C(F)(F)F)cc2nn1-c1ccccc1)c1cc(-c2ncccn2)c(C(F)(F)F)cc1F (single isomer, unassigned) [Compound 53, (R or S)-2-Fluoro-N-{2-phenyl-6-[(1S)-2,2,2-trifluoro-1-hydroxyethyl]-2H-indazol-3-yl}-5-pyrimidin-2-yl-4-(trifluoromethyl)benzamide, isomers A and B] | 29
Cn1ccc(-c2cc(C(=O)Nc3c4cc(CO)ccc4nn3-c3ccccc3)ccc2C(F)(F)F)n1 [Compound 10, N-(5-(Hydroxymethyl)-2-phenyl-2H-indazol-3-yl)-3-(1-methyl-1H-pyrazol-3-yl)-4-(trifluoromethyl)benzamide] | 0.84
O=C(Nc1c2cc(C(O)C(F)(F)F)ccc2nn1-c1ccccc1)c1cc(-c2ncccn2)c(C(F)(F)F)cc1F (single isomer, unassigned; isomer a) [Compound 54, (R or S)-2-fluoro-N-(2-phenyl-5-(2,2,2-trifluoro-1-hydroxyethyl)-2H-indazol-3-yl)-5-(pyrimidin-2-yl)-4-(trifluoromethyl)benzamide, isomer A] | 23
Cn1ccc(-c2cc(C(=O)Nc3c4nc(C(C)(C)O)ncc4nn3-c3ccccc3)c(F)cc2C(F)(F)F)n1 [Compound 43, 2-Fluoro-N-(5-(2-hydroxypropan-2-yl)-2-phenyl-2H-pyrazolo[4,3-d]pyrimidin-3-yl)-5-(1-methyl-1H-pyrazol-3-yl)-4-(trifluoromethyl)benzamide] | 33
CC(O)c1cnc2c(NC(=O)c3cc(-c4ncccn4)c(C(F)(F)F)cc3F)n(-c3ccccc3)nc2c1 (single isomer, unassigned; isomer b) [Compound 30, (R or S)-2-fluoro-N-[6-(1-hydroxyethyl)-2-phenyl-2H-pyrazolo[4,3-b]pyridin-3-yl]-5-pyrimidin-2-yl-4-(trifluoromethyl)benzamide, isomer B] | 1.1
O=C(Nc1c2ccc(CO)cc2nn1-c1ccccc1)c1cc(-c2cc[nH]n2)c(C(F)(F)F)cc1F [Compound 14, 2-fluoro-N-[6-(hydroxymethyl)-2-phenyl-2H-indazol-3-yl]-5-(1H-pyrazol-3-yl)-4-(trifluoromethyl)benzamide] | 1.2
Cn1ccc(-c2cc(C(=O)Nc3c4cccnc4nn3-c3ccccc3)c(F)cc2C(F)(F)F)n1 [Compound 6, 2-fluoro-5-(1-methyl-1H-pyrazol-3-yl)-N-(2-phenyl-2H-pyrazolo[3,4-b]pyridin-3-yl)-4-(trifluoromethyl)benzamide] | 6.1
CC(O)c1ccc2nn(-c3ccccc3)c(NC(=O)c3ccc(C(F)(F)F)c(-c4ccn(C)n4)c3)c2c1 (single isomer, unassigned; isomer a) [Compound 23, (R or S)-N-[5-(1-hydroxyethyl)-2-phenyl-2H-indazol-3-yl]-3-(1-methyl-1H-pyrazol-3-yl)-4-(trifluoromethyl)benzamide, isomer A] | 3.7
COc1ccc2nn(-c3ccccc3)c(NC(=O)c3cc(-c4ncccn4)c(C(F)(F)F)cc3F)c2n1 [Compound 8, 2-fluoro-N-(5-methoxy-2-phenyl-2H-pyrazolo[4,3-b]pyridin-3-yl)-5-pyrimidin-2-yl-4-(trifluoromethyl)benzamide] | 18
O=C(Nc1c2ccc(CO)cc2nn1-c1ccccc1)c1cc(-c2ncccn2)c(C(F)(F)F)cc1F [Compound 13, 2-fluoro-N-[6-(hydroxymethyl)-2-phenyl-2H-indazol-3-yl]-5-pyrimidin-2-yl-4-(trifluoromethyl)benzamide] | 3.8
O=C(Nc1c2ncccc2nn1-c1ccccc1)c1cc(-c2ncccn2)c(C(F)(F)F)cc1F [Compound 1, 2-Fluoro-N-(2-phenyl-2H-pyrazolo[4,3-b]pyridin-3-yl)-5-pyrimidin-2-yl-4-(trifluoromethyl)benzamide] | 5.2
Cn1ccc(-c2cc(C(=O)Nc3c4cc(CO)ncc4nn3-c3ccccc3)c(F)cc2C(F)(F)F)n1 [Compound 18, 2-fluoro-N-[5-(hydroxymethyl)-2-phenyl-2H-pyrazolo[3,4-c]pyridin-3-yl)-5-(1-methyl-1H-pyrazol-3-yl)-4-(trifluoromethyl)benzamide] | 1.9
CC(O)c1ccc2nn(-c3ccccc3)c(NC(=O)c3ccc(C(F)(F)F)c(-c4ccn(C)n4)c3)c2c1 (single isomer, unassigned; isomer b) [Compound 24, (R or S)-N-[5-(1-hydroxyethyl)-2-phenyl-2H-indazol-3-yl]-3-(1-methyl-1H-pyrazol-3-yl)-4-(trifluoromethyl)benzamide, isomer B] | 2.4
Cn1ccc(-c2cc(C(=O)Nc3c4cc(C5(O)CC5)ccc4nn3-c3ccccc3)ccc2C(F)(F)F)n1 [Compound 51, N-[5-(1-hydroxycyclopropyl)-2-phenyl-2H-indazol-3-yl]-3-(1-methyl-1H-pyrazol-3-yl)-4-(trifluoromethyl)benzamide] | 6.4
O=C(Nc1c2cc(CO)ccc2nn1-c1ccccc1)c1cc(-c2ncccn2)c(C(F)(F)F)cc1F [Compound 12, 2-fluoro-N-[5-(hydroxymethyl)-2-phenyl-2H-indazol-3-yl]-5-pyrimidin-2-yl-4-(trifluoromethyl)benzamide] | 2.6
CC(O)c1cnc2c(NC(=O)c3cc(-c4ncccn4)c(C(F)(F)F)cc3Cl)n(-c3ccccc3)nc2c1 (single isomer, unassigned; isomer a) [Compound 35, (R or S)-2-chloro-N-[6-(1-hydroxyethyl)-2-phenyl-2H-pyrazolo[4,3-b]pyridin-3-yl]-5-pyrimidin-2-yl-4-(trifluoromethyl)benzamide, isomer A] | 1.7
